The values that follow are results of earlier work, collected in patent US20090170848A1, “THIAZOLONES FOR USE AS PI3 KINASE INHIBITORS” (SMITHKLINE BEECHAM CORPORATION, priority 2006, published 2009).

Series [1] addresses CK2 protein kinase (Homo sapiens, UniProt P68400).
Series [2] relates to Class I PI3-kinases.

Read-outs that look alike come from different tables or passages of the source.

CK2 protein kinase, sequence (P68400 whole entry): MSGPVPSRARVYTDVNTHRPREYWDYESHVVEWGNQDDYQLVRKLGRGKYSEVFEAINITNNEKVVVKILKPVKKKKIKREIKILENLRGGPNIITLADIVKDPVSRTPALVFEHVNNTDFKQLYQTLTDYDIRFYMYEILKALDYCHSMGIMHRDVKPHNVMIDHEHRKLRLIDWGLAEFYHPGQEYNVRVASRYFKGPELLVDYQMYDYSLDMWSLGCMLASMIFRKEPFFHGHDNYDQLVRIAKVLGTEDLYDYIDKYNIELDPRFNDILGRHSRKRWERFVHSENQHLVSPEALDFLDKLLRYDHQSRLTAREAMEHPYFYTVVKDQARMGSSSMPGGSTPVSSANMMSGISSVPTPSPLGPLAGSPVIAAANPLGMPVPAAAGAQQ

`O=c1cc(N2CCOCC2)oc2c(-c3ccccc3)cccc12` [LY294002]: the half-maximal inhibitory concentration (IC50) (in general, the concentration needed to halve the response being measured) is 5 to 10 µM in series [1] and 15 to 20 µM in series [2] (read-out: IC50 values against each of these PI3-kinases).
Regarding `COC[C@H]1OC(=O)c2coc3c2[C@@]1(C)C1=C(C3=O)[C@@H]2CCC(=O)[C@@]2(C)C[C@H]1OC(C)=O` [wortmannin], the half-maximal inhibitory concentration (IC50) in series [2] (each of the four members of Class I PI3-kinases, read-out: IC50 values against each of the various Class I PI3-kinases) was 0.001 to 0.01 µM.
